Reference: publication PMC11847541, “Liver fatty acid binding protein FABP1 transfers substrates to cytochrome P450 4A11 for catalysis” (The Journal of Biological Chemistry, 2025)
Entries after “also recorded” stand apart in the source; their conditions may differ. Read-outs that look alike come from different tables or passages of the source.

What was measured:
FABP1 [1] = target: T1, FABP1 (Homo sapiens, UniProt P07148); experiment: Fluorescence titration of DAUDA with FABP1 (reverse titration); format: binding; conditions: DAUDA 50 nM, FABP1 titrated, quadratic fit
T1 construct: GST (N, cleaved yes); made in house; host or cells: Escherichia coli DH5α
T1 sequence (P07148 with tags, fused parts or gaps): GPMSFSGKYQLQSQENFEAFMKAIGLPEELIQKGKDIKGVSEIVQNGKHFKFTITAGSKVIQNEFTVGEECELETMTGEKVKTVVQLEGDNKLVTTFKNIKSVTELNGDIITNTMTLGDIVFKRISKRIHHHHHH
Method: Binding of DAUDA to FABP1 was assessed in a “reverse titration” where FABP1 was titrated into a fixed concentration of DAUDA (50 nM), yielding a characteristic gain of fluorescence (Fig. 4A) at 482 nm. FABP1 was titrated into a solution of DAUDA (“reverse titration”) and not vice versa because of the intrinsic fluorescence of DAUDA (Fig. S11E), which overlaps with the spectrum of DAUDA–FABP1 (Fig. 4A). The intrinsic fluorescence of DAUDA was generally only problematic at concentrations much higher (>500 nM) than used in the assays (50 nM), though we sought to eliminate this additional variable by performing the reverse titration to estimate the Kd.
Figure 4 Fluorescence titration of DAUDA with FABP1 (“reverse” titration).A, fluorescence spectra (λex = 335 nm) of DAUDA (0.05 μM) collected with increasing concentrations of FABP1 (0–1.25 μM). The binding of DAUDA to FABP1 is accompanied by a gain of fluorescence, indicated with an arrow. B, titration curve calculated with data points (n = 1) at the observed fluorescence maximum (482 nm) and plotted versus concentration of FABP1. Data were fit to a quadratic equation. DAUDA, 11-dansylaminoundecanoic acid; FABP1, fatty acid binding protein. […]

P450 4A11 = target: T2, P450 4A11 (Homo sapiens, UniProt Q02928); experiment: Equilibrium binding titrations of P450 4A11 with lipids (heme Soret spectral shift); conditions: P450 1 µM, DAUDA 1 nM to 10 µM
T2 sequence (Q02928 5-519): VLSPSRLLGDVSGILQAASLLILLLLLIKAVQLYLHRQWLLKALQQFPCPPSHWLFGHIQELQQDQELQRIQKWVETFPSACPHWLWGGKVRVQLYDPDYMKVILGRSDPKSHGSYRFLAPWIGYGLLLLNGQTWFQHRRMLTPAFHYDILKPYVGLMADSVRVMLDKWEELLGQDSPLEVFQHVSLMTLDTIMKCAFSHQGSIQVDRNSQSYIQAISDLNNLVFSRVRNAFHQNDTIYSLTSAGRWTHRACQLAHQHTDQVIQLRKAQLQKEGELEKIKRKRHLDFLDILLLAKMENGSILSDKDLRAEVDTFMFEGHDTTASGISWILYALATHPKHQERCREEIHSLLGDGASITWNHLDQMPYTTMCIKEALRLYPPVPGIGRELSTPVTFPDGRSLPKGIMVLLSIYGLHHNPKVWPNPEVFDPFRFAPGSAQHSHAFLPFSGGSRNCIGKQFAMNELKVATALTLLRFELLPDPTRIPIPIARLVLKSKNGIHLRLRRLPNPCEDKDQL
Method: Affinity of palmitate and 16-OH palmitate for P450 4A11 (1 μM) was assessed by monitoring the blue shift (from ∼420 nm to ∼390 nm) of the P450 heme Soret band as a substrate binds and displaces the sixth axial heme ligand (H2O) to yield pentacoordinated heme (“type I” shift) ([26]).
P450 4A11 (1 μM) was titrated with (A) palmitate and (B) 16-OH palmitate in a 1.0 cm pathlength cell. Difference plots were calculated from absorbance maxima (∼390 nm) and minima (∼420 nm), and the data were fit to a hyperbolic equation. The insets in each panel are the difference spectra between a cuvette that received the lipid substrate and a cuvette that received solvent alone. Each data point corresponds to one independent replicate.
Equilibrium binding titrations with P450 4A11 (1 μM) were performed in buffer (100 mM potassium phosphate [pH 7.4]) as described previously ([44], [56]). Briefly, a baseline was first acquired on an OLIS-Cary 14 spectrophotometer set to scan from 350 to 500 nm in 1 cm glass cuvettes. […] The cuvettes were mixed with a plumper after additions, and spectra were recorded. The spectra were exported into Microsoft Excel software, and the absorbance values at 418 nm were subtracted from those at 390 nm and the values were plotted as a function of lipid concentration.
Titration of P450 4A11 with DAUDA. The P450 concentration was 1 µM and the DAUDA concentration was varied using a geometric series from 1 nM to 10 µM. […] The increase in absorbance in the UV region is due to the strong chromophore in the DAUDA dansyl moiety (Fig. S8).

FABP1 [2] = target: T1, FABP1; experiment: Stopped-flow kinetics of DAUDA binding to FABP1
Method: In order to measure the rate of binding of DAUDA to FABP1, four concentrations (0.5–12.5 μM) of DAUDA were rapidly mixed with FABP1 (0.5 μM), and the gain of fluorescence (at 482 nm, Fig. 4A) was monitored over time (Fig. 6, A–D). […] A kon value (k4) of 9.0 ± 0.2 × 10^7 M^−1 s^−1 was calculated from the data (see the Experimental procedures section) (Fig. 6F).
Figure 6 Kinetics of binding of DAUDA to FABP1. FABP1 (0.5 μM) was mixed with (A) 0.5 μM, (B) 2.5 μM, (C) 5 μM, and (D) 12.5 μM DAUDA to yield the binding traces shown. DAUDA–FABP1 was excited (λex = 335 nm) as in Fig. 4 and total fluorescence signal >420 nm was collected. Data were fit to double exponential curves, and (E) the rate of the fast phase was extracted and plotted against DAUDA concentration. The data curve was fit to a Michaelis–Menten-type hyperbola. Each trace corresponds to ≥6 averaged replicate traces. In part A, the binding of DAUDA (0.5 μM) was proportional to the disappearance of protein (0.5 μM). The reciprocal concentration of FABP1 was plotted against time in part F, and the slope of the linear portion (linear regression in red) of that curve ([77]) gave an on-rate (kon) of 9.0 × 10^7 M^−1 s^−1. DAUDA, 11-dansylaminoundecanoic acid; FABP1, fatty acid binding protein.
Determination of the DAUDA on-rate (kon) to FABP1 was performed by mixing FABP1 (1 μM) and DAUDA ([…], see “Preparation of DAUDA stock solutions”) solutions (both in 100 mM potassium phosphate buffer, pH 7.4) in equal proportion (yielding a twofold dilution of all reaction components) using an OLIS stopped-flow spectrofluorometer with the parameters set as described earlier (see “P450 4A11 kon determinations”). […] At least six replicate measurements were recorded, the spectra were processed such that the fluorescence gain (from DAUDA binding) began at an (x, y) intercept of (0, 0), and the spectra were averaged and fit to double exponential plots in GraphPad Prism, and the rates for the fast (kon) and slow phases of binding were extracted. Then, as the first experiment was recorded by mixing equimolar (1 μM) concentrations of FABP1 and DAUDA and the binding was rapid, we approximated the binding as 2A → C (i.e., mathematically equivalent to A + B → C when the depletion of B is equal to the depletion of A ([77])). We plotted [FABP]^−1 as a function of time and fit the data to a linear equation (the slope of which is kon).

[3] = Stability of DAUDA stock solutions; format: physicochemical
Method: DAUDA stock solutions (10 mM, prepared in C2H5OH) could be stored at −20 °C for up to 1 week with no significant decay of the UV spectrum and no formation of degradation peaks in the LC–MS chromatogram. Storage under these conditions for more than 1 week did compromise sample integrity (and the samples were discarded). We later observed that DAUDA stock solutions (10 mM) prepared in 50 mM K2CO3 and frozen at −80 °C could undergo several freeze–thaw cycles over the course of 2 months with no significant decay of the UV spectrum and no formation of degradation peaks in the LC–MS chromatogram.

FABP1 [4] = target: T1, FABP1; conditions: cited from earlier work

**Q.** With `CN(C)c1cccc2c(S(=O)(=O)NCCCCCCCCCCC(=O)O)cccc12` [DAUDA, 11-dansylaminoundecanoic acid] as the molecule, how does the Kd (FABP1 [1]) read?
**A.** 56 nM

**Q.** And the “binding to P450 4A11 (type I spectral shift)” value (P450 4A11)?
**A.** not detected; also recorded: did not bind

**Q.** And the kon (FABP1 [2]; FABP1 0.5 μM, DAUDA 0.5 μM, read-out: kon of DAUDA to FABP1 (k4))?
**A.** 9e+07 M⁻¹ s⁻¹

**Q.** And the koff (FABP1 [2]; calculated from kon and Kd)?
**A.** 5 s⁻¹

**Q.** What about the “koff from FABP1 relative to koff from P450 4A11” value (FABP1 [2]; faster) of the same molecule?
**A.** 25 fold

**Q.** What about the “kon of DAUDA to FABP1 relative to palmitate binding to P450 4A11” value (FABP1 [2]; faster) of the same molecule?
**A.** > 2000 fold

**Q.** What about the “storage time with no significant decay of UV spectrum and no degradation peaks” value ([3]; 10 mM in 50 mM K2CO3, −80 °C, several freeze–thaw cycles) of the same molecule?
**A.** 2 months

**Q.** What about the “storage time with no significant decay of UV spectrum and no degradation peaks” value ([3]; 10 mM in C2H5OH, −20 °C) of the same molecule?
**A.** up to 1 week

**Q.** What about the Kd (FABP1 [4]; human ortholog, high-affinity site, read-out: Kd,1) of the same molecule?
**A.** 200 nM

**Q.** What about the Kd (FABP1 [4]; human ortholog, low-affinity site, read-out: Kd,2) of the same molecule?
**A.** > 3300 nM

**Q.** What about the Kd (FABP1 [4]; literature estimate, high-affinity site, read-out: Kd) of the same molecule?
**A.** > 460 nM
